{
  "source": "paper PMC5325331",
  "about": "“A steroid like phytochemical Antcin M is an anti-aging reagent that eliminates hyperglycemia-accelerated premature senescence in dermal fibroblasts by direct activation of Nrf2 and SIRT-1” (Oncotarget, 2016)",
  "key": {"[1]": {"test_system": "C. elegans wild type Bristol N2", "test": "Life span assay in C. elegans", "format": "in vivo, Caenorhabditis elegans", "conditions": "ANM 10 μM or RES 438 μM alone, compared to the control", "protocol": "The wild type Bristol N2 strain was used in this study. C. elegans and Escherichia coli OP50 strain were obtained from the Caenorhabditis Genetic Center, University of Minnesota (Minneapolis-St. Paul, MN). Worms were maintained at 20°C on nematode growth medium (NGM). Hatched worms (L1-stage larvae) were transferred to fresh agar plates and cultured with E. coli OP50 as a food source until they reached the L4 larvae stage. Synchronization of worm cultures was achieved by hypochlorite treatment of gravid hermaphrodites. […] Control worms were treated with 0.1% DMSO. All worms were kept 20°C to develop adulthood. Surviving and dead animals were counted daily (starting from the first day of adulthood) until all worms had died. […] Worms suffering from internal hatch (a defect in egg-laying) and those that crawled off the NGM plate were not included in the life-span assay. During the reproductive period, adult worms were transferred to fresh NGM plates every and then every other day thereafter. Life span assay result was obtained from three independent assays."}, "HUVECs": {"test_system": "HUVECs", "test": "Cell viability of HUVECs (MTT assay)", "format": "cell-based, human", "conditions": "ANM 10 μM or RES 5 μM for 48 h", "protocol": "Human normal dermal fibroblasts ([…]) and human umbilical vein endothelial cells (HUVECs) were obtained from the Bioresource Collection and Research Center (BCRC), Hsinchu, Taiwan. […] Likewise, HUVECs were grown in M-199 medium supplemented with ECGS, heparin, 10% FBS and 100 U/mL penicillin and streptomycin at 37°C in a fully humidified atmosphere of 5% CO2. High-glucose treatment was performed by treating cells with 15 or 30 mM D-glucose (HG) for 24-72 h. […] Cell viability was assessed by MTT colorimetric assay. […] After treatment with HG (15 and 30 mM) in the presence or absence of samples for 24-72 h, culture media was withdrawn and incubated with MTT (1 mg/mL) in fresh medium for 2 h. The MTT formazan crystals were dissolved in 400 μL of DMSO and the samples were measured at 570 nm […] using an ELISA microplate reader (Bio-Tek Instruments, Winooski, VT). The percentage of cell viability (%) was calculated as (A570 of treated cells/A570 of untreated cells) × 100."}},
  "data": [
    {"smiles": "Oc1ccc(/C=C/c2cc(O)cc(O)c2)cc1", "note": "[RES, resveratrol, reference compound]", "values": [
      {"measurement": "life span of C. elegans under normal condition", "setting": "[1]", "result": "highly comparable"},
      {"measurement": "cell viability of HUVECs, treatment alone", "setting": "HUVECs", "result": "did not affect cell viability"}
    ]}
  ]
}
